Read-outs that look alike come from different tables or passages of the source.

The target of the assay is BTK wild type (Homo sapiens (Human), UniProt Q06187). Kind of assay: Inhibition assay of BTK kinase activity (HTRF). The assay is classed as biochemical. Here is the method: Inhibition Assay of BTK Kinase Activity:
The enzyme reaction mixture of BTK wild type standard HTRF assay contained 1 nM BTK wild type, 1 μM biotin-TK1 peptide, and 30 μM ATP in a buffer. The enzyme reaction were carried out at room temperature for 60 minutes. […] The plates were incubated at room temperature for 60 minutes and then read in the Envision plate reader.

Where [1] appears, read: all compounds with IC50 of less 10 nM, read-out: IC50 (BTK).

Sequence of BTK wild type (Q06187 whole entry): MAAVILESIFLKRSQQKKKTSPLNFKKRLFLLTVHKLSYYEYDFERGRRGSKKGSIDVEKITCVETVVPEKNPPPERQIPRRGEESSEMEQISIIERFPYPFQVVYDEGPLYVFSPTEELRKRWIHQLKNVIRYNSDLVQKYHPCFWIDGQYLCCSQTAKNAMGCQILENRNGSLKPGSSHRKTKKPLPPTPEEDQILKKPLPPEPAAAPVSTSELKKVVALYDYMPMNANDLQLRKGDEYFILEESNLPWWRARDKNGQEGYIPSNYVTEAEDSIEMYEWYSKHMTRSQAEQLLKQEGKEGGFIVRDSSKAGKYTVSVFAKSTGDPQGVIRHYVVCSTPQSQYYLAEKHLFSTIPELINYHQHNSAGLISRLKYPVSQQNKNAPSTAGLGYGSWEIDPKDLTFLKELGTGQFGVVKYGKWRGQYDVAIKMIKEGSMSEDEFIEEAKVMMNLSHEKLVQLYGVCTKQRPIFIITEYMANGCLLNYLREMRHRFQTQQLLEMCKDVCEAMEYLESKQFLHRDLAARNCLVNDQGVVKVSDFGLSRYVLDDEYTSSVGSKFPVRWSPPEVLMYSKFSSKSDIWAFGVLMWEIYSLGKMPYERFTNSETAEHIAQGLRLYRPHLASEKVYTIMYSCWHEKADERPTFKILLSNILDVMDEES

A word on the IC50: it is the concentration needed to halve the response being measured. Consider `CN(C)C/C=C/C(=O)N1CC[C@@H](n2nc(-c3ccc(Oc4c(F)c(F)cc(F)c4F)cc3F)c3c(N)ncnc32)C1` [Compound 91, (E)-1-((R)-3-(4-amino-3-(2-fluoro-4-(2,3,5,6-tetrafluorophenoxy)phenyl)-1H-pyrazolo[3,4-d]pyrimidin-1-yl)pyrrolidin-1-yl)-4-(dimethylamino)but-2-en-1-one], for which the half-inhibitory concentration (IC50) is < 10 nM under setting [1] and 3 nM (read-out: BTK IC50).

Turning to `Nc1ncnc2c1c(-c1ccc(Oc3c(F)c(F)cc(F)c3F)cc1F)nn2[C@@H]1CCN(C(=O)/C=C/c2ccccc2)C1` [Compound 92, (E)-1-((R)-3-(4-amino-3-(2-fluoro-4-(2,3,5,6-tetrafluorophenoxy)phenyl)-1H-pyrazolo[3,4-d]pyrimidin-1-yl)pyrrolidin-1-yl)-3-phenylprop-2-en-1-one], the IC50 (read-out: BTK IC50) was found to be 2400 nM.

On to `Nc1ncnc2c1c(-c1ccc(Oc3c(F)c(F)cc(F)c3F)cc1F)nn2[C@@H]1CCN(C(=O)/C=C/c2ccccc2F)C1` [Compound 93, (E)-1-((R)-3-(4-amino-3-(2-fluoro-4-(2,3,5,6-tetrafluorophenoxy)phenyl)-1H-pyrazolo[3,4-d]pyrimidin-1-yl)pyrrolidin-1-yl)-3-(2-fluorophenyl)prop-2-en-1-one], for which the IC50 (read-out: BTK IC50) was 2650 nM.

On to `C=CC(=O)N1CC[C@@H](n2nc(-c3ccc(Oc4cccc(F)c4)cc3F)c3c(N)ncnc32)C1` [Compound 94, 1-((R)-3-(4-amino-3-(2-fluoro-4-(3-fluorophenoxy)phenyl)-1H-pyrazolo[3,4-d]pyrimidin-1-yl)pyrrolidin-1-yl)prop-2-en-1-one], for which the IC50 is < 10 nM under setting [1] and 1 nM (read-out: BTK IC50).

Consider `C=CC(=O)N1CC[C@@H](n2nc(-c3ccc(Oc4ncccn4)cc3F)c3c(N)ncnc32)C1` [Compound 95, 1-((R)-3-(4-amino-3-(2-fluoro-4-(pyrimidin-2-yloxy)phenyl)-1H-pyrazolo[3,4-d]pyrimidin-1-yl)pyrrolidin-1-yl)prop-2-en-1-one], for which the IC50 reads like this: under setting [1], < 10 nM; (read-out: BTK IC50) 5 nM.

Consider `C=CC(=O)N1CC[C@@H](n2nc(-c3ccc(Oc4nccc(Cl)n4)cc3F)c3c(N)ncnc32)C1` [Compound 96, 1-((R)-3-(4-amino-3-(4-(4-chloropyrimidin-2-yloxy)-2-fluorophenyl)-1H-pyrazolo[3,4-d]pyrimidin-1-yl)pyrrolidin-1-yl)prop-2-en-1-one], for which the IC50 (read-out: BTK IC50) was found to be 13 nM.

Regarding `C=CC(=O)N1CC[C@@H](n2nc(-c3ccc(Oc4nccc(C(F)(F)F)n4)cc3F)c3c(N)ncnc32)C1` [Compound 97, 1-((R)-3-(4-amino-3-(2-fluoro-4-(4-(trifluoromethyl)pyrimidin-2-yloxy)phenyl)-1H-pyrazolo[3,4-d]pyrimidin-1-yl)pyrrolidin-1-yl)prop-2-en-1-one], the IC50 (read-out: BTK IC50) amounted to 6 nM.

Consider `N#C/C=C\C(=O)N1CC[C@@H](n2nc(-c3ccc(Oc4c(F)c(F)cc(F)c4F)cc3F)c3c(N)ncnc32)C1` [Compound 98, (Z)-4-((R)-3-(4-amino-3-(2-fluoro-4-(2,3,5,6-tetrafluorophenoxy)phenyl)-1H-pyrazolo[3,4-d]pyrimidin-1-yl)pyrrolidin-1-yl)-4-oxobut-2-enenitrile], for which the IC50 reads like this: under setting [1], < 10 nM; (read-out: BTK IC50) 2 nM.

As to `Nc1ncnc2c1c(-c1ccc(Oc3c(F)c(F)cc(F)c3F)cc1F)nn2[C@@H]1CCCN(C(=O)CCl)C1` [Compound 99, 1-((R)-3-(4-amino-3-(2-fluoro-4-(2,3,5,6-tetrafluorophenoxy)phenyl)-1H-pyrazolo[3,4-d]pyrimidin-1-yl)piperidin-1-yl)-2-chloroethanone], the IC50 reads like this: under setting [1], < 10 nM; (read-out: BTK IC50) 2 nM.

Take `Nc1ncnc2c1c(-c1ccc(Oc3c(F)c(F)cc(F)c3F)cc1F)nn2[C@H]1CCCN(C(=O)CCl)C1` [Compound 100, 1-((S)-3-(4-amino-3-(2-fluoro-4-(2,3,5,6-tetrafluorophenoxy)phenyl)-1H-pyrazolo[3,4-d]pyrimidin-1-yl)piperidin-1-yl)-2-chloroethanone]: the IC50 by setting is: under setting [1], < 10 nM; (read-out: BTK IC50) 2 nM.

`Nc1ncnc2c1c(-c1ccc(Oc3c(F)c(F)cc(F)c3F)cc1F)nn2[C@@H]1CCCN(C(=O)C(Cl)Cl)C1` [Compound 101, 1-((R)-3-(4-amino-3-(2-fluoro-4-(2,3,5,6-tetrafluorophenoxy)phenyl)-1H-pyrazolo[3,4-d]pyrimidin-1-yl)piperidin-1-yl)-2,2-dichloroethanone]: for the setting “read-out: BTK IC50”, the IC50 is 525 nM.

As for `Nc1ncnc2c1c(-c1ccc(Oc3c(F)c(F)cc(F)c3F)cc1F)nn2[C@H]1CCCN(C(=O)C(Cl)Cl)C1` [Compound 102, 1-((S)-3-(4-amino-3-(2-fluoro-4-(2,3,5,6-tetrafluorophenoxy)phenyl)-1H-pyrazolo[3,4-d]pyrimidin-1-yl)piperidin-1-yl)-2,2-dichloroethanone], the IC50 (read-out: BTK IC50) worked out at 1600 nM.

As to `Nc1ncnc2c1c(-c1ccc(Oc3c(F)c(F)cc(F)c3F)cc1F)nn2[C@@H]1CCN(C(=O)C(Cl)Cl)C1` [Compound 103, 1-((R)-3-(4-amino-3-(2-fluoro-4-(2,3,5,6-tetrafluorophenoxy)phenyl)-1H-pyrazolo[3,4-d]pyrimidin-1-yl)pyrrolidin-1-yl)-2,2-dichloroethanone], the IC50 (read-out: BTK IC50) was 546 nM.

For the compound `C/C=C/C(=O)N1CC[C@@H](n2nc(-c3ccc(Oc4c(F)c(F)cc(F)c4F)cc3F)c3c(N)ncnc32)C1` [Compound 104, (E)-1-((R)-3-(4-amino-3-(2-fluoro-4-(2,3,5,6-tetrafluorophenoxy)phenyl)-1H-pyrazolo[3,4-d]pyrimidin-1-yl)pyrrolidin-1-yl)but-2-en-1-one], the IC50 (read-out: BTK IC50) is 107 nM.

As to `C=C(C)C(=O)N1CC[C@@H](n2nc(-c3ccc(Oc4c(F)c(F)cc(F)c4F)cc3F)c3c(N)ncnc32)C1` [Compound 105, 1-((R)-3-(4-amino-3-(2-fluoro-4-(2,3,5,6-tetrafluorophenoxy)phenyl)-1H-pyrazolo[3,4-d]pyrimidin-1-yl)pyrrolidin-1-yl)-2-methylprop-2-en-1-one], the IC50 (read-out: BTK IC50) amounted to 589 nM.

Take `C=C(F)C(=O)N1CC[C@@H](n2nc(-c3ccc(Oc4c(F)c(F)cc(F)c4F)cc3F)c3c(N)ncnc32)C1` [Compound 106, 1-((R)-3-(4-amino-3-(2-fluoro-4-(2,3,5,6-tetrafluorophenoxy)phenyl)-1H-pyrazolo[3,4-d]pyrimidin-1-yl)pyrrolidin-1-yl)-2-fluoroprop-2-en-1-one]: the IC50 by setting is: under setting [1], < 10 nM; (read-out: BTK IC50) 3 nM.

On to `Nc1ncnc2c1c(-c1ccc(Oc3c(F)c(F)cc(F)c3F)cc1F)nn2[C@@H]1CCCN(C(=O)CF)C1` [Compound 107, 1-((R)-3-(4-amino-3-(2-fluoro-4-(2,3,5,6-tetrafluorophenoxy)phenyl)-1H-pyrazolo[3,4-d]pyrimidin-1-yl)piperidin-1-yl)-2-fluoroethanone], for which, for the setting “read-out: BTK IC50”, the IC50 amounted to 101 nM.

Turning to `Nc1ncnc2c1c(-c1ccc(Oc3c(F)c(F)cc(F)c3F)cc1F)nn2[C@H]1CCCN(C(=O)CF)C1` [Compound 108, 1-((S)-3-(4-amino-3-(2-fluoro-4-(2,3,5,6-tetrafluorophenoxy)phenyl)-1H-pyrazolo[3,4-d]pyrimidin-1-yl)piperidin-1-yl)-2-fluoroethanone], under “read-out: BTK IC50”, the IC50 was found to be 436 nM.

Turning to `Nc1ncnc2c1c(-c1ccc(Oc3c(F)c(F)cc(F)c3F)cc1F)nn2[C@@H]1CCN(C(=O)c2ncco2)C1` [Compound 109, ((R)-3-(4-amino-3-(2-fluoro-4-(2,3,5,6-tetrafluorophenoxy)phenyl)-1H-pyrazolo[3,4-d]pyrimidin-1-yl)pyrrolidin-1-yl)(oxazol-2-yl)methanone], the IC50 (read-out: BTK IC50) was determined as 1280 nM.
